In ChEMBL document CHEMBL4400521, “Plasma kallikrein cleaves and inactivates apelin-17: Palmitoyl- and PEG-extended apelin-17 analogs as metabolically stable blood pressure-lowering agents” (Eur J Med Chem, 2019):
Non-standard residues stand in square brackets, D forms with d. Residues, ends and D or L forms follow the SMILES beside them. *: point of attachment. Phe(4-Br) = N[C@@H](Cc1ccc(Br)cc1)C(=O)O; Fmoc = O=C(OCC1c2ccccc2-c2ccccc21)*; PEG6 = NCCOCCOCCOCCOCCOCCOCCC(=O)O; Palmitoyl = CCCCCCCCCCCCCCCC(=O)*; NMeL = CN[C@@H](CC(C)C)C(=O)O; Nle = CCCC[C@H](N)C(=O)O; Aib = CC(C)(N)C(=O)O

Tests used:
[1] = system: Mus musculus; assay: Blood pressure lowering activity in anesthetized mouse assessed as change in mean arterial blood pressure at 1.4 uM/kg, iv; assay type: functional
[2] = molecular target: T1, Plasma kallikrein (KLKB1) (Homo sapiens, UniProt P03952); assay: Substrate activity at recombinant human C-terminal His6-tagged KLKB1 (Pro19 to Ser262 residues) expressed in mammalian expression system assessed as Km measured after 30 to 60 mins by LC-MS analysis; assay type: ADME
T1 sequence (P03952 20-390 limits assumed): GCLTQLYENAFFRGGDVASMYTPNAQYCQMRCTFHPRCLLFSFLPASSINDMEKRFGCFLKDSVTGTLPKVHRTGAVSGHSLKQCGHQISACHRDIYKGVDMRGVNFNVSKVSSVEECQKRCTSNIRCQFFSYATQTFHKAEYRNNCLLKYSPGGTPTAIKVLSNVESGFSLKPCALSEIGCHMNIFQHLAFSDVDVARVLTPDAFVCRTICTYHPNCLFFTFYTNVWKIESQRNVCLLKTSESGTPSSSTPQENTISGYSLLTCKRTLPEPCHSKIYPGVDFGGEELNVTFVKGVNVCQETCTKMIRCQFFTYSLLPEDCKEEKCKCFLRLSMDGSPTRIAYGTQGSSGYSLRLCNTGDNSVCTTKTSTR
T1 sequence (P03952 391-638 limits assumed): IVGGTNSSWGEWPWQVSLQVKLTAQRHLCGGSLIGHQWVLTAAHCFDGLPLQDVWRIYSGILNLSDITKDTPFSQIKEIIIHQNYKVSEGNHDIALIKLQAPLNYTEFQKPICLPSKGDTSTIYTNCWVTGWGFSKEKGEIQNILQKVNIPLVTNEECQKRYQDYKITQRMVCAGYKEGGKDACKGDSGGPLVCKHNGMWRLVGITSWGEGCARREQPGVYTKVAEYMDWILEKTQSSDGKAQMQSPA

[3] = molecular target: T2, Plasma kallikrein (Homo sapiens, UniProt P03952); assay: Substrate activity at recombinant human C-terminal His6-tagged KLKB1 (Pro19 to Ser262 residues) expressed in mammalian expression system assessed as Kcat measured after 30 to 60 mins by LC-MS analysis; assay type: ADME
T2 sequence (P03952 20-390 limits assumed): as the sequence (P03952 20-390 limits assumed) above
T2 sequence (P03952 391-638 limits assumed): as the sequence (P03952 391-638 limits assumed) above

[4] = molecular target: T2, Plasma kallikrein; assay: Substrate activity at human KLKB1 assessed as ratio of Kcat to Km by spectrofluorimetric method; assay type: ADME
[5] = molecular target: Neprilysin (Homo sapiens, UniProt P08473); assay: Substrate activity at recombinant human NEP (Tyr52 to Trp750 residues) expressed in HEK293 cells assessed as enzyme-mediated degradation onset time at 1 mM by MALDI-TOF MS analysis; assay type: ADME, cell-based; conditions: hek293, 1000 µM
Chain of Neprilysin (P08473 whole entry): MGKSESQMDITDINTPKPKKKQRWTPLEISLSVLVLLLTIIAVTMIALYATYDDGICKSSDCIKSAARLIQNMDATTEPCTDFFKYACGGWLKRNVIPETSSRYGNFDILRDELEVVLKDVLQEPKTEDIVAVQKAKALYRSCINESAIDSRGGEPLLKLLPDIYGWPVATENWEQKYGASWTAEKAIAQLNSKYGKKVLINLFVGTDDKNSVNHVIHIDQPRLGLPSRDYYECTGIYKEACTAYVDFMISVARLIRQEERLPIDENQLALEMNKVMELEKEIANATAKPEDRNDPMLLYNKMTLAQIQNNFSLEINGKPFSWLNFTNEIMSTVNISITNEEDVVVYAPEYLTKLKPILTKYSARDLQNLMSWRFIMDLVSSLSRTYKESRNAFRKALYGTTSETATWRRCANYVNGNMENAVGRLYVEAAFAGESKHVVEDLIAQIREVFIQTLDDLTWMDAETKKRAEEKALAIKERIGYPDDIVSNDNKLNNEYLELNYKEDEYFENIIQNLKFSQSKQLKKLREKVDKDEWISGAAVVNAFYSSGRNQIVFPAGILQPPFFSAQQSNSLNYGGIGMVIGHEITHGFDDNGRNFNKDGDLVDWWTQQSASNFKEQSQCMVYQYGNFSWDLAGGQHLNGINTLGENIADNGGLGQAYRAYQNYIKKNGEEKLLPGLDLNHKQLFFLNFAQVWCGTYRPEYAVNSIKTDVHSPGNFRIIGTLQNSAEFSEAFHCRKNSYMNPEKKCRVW

[6] = molecular target: T2, Plasma kallikrein; assay: Substrate activity at recombinant human C-terminal His6-tagged KLKB1 (Pro19 to Ser262 residues) expressed in mammalian expression system assessed as enzyme-mediated degradation onset time at 1 mM by MALDI-TOF MS analysis; assay type: ADME; conditions: 1000 µM
[7] = molecular target: T1, Plasma kallikrein (KLKB1); assay: (§1) Substrate activity at recombinant human C-terminal His6-tagged KLKB1 (Pro19 to Ser262 residues) expressed in mammalian expression system assessed as compound half life by LC-MS analysis; assay type: ADME
[8] = molecular target: T1, Plasma kallikrein (KLKB1); assay: Substrate activity at KLKB1 in human plasma assessed as compound half life by LC-MS analysis; assay type: ADME, cell-free
[9] = molecular target: T3, Apelin receptor (Homo sapiens, UniProt P35414); assay: Activation of recombinant human APJ expressed in rat Chem5 cells co-expressing Galpha15 by Calcium 6-QF dye based fluorescence assay; assay type: functional, cell-based
T3 sequence (P35414 whole entry): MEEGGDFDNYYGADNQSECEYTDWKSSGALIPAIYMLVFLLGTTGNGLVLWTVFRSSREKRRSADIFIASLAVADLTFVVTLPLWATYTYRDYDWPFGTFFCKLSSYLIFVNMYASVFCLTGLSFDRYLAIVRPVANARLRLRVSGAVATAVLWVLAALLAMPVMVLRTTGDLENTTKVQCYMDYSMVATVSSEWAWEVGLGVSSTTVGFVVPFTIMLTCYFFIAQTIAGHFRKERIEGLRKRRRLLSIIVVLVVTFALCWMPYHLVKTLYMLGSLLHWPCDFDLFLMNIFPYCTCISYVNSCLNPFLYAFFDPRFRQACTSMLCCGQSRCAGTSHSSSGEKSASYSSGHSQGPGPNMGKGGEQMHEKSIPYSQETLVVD

[10] = molecular target: Neprilysin (NEP) (Homo sapiens, UniProt P08473); assay: Substrate activity at recombinant human NEP (Tyr52 to Trp750 residues) expressed in HEK293 cells assessed as compound half life by LC-MS analysis; assay type: ADME, cell-based
Chain of Neprilysin (NEP) (P08473 whole entry): as the sequence (P08473 whole entry) above

[11] = molecular target: T2, Plasma kallikrein; assay: Substrate activity at recombinant human C-terminal His6-tagged KLKB1 (Pro19 to Ser262 residues) expressed in mammalian expression system assessed as Vmax measured after 30 to 60 mins by LC-MS analysis; assay type: ADME
[12] = molecular target: T4, Apelin receptor (Rattus norvegicus, UniProt Q9JHG3); assay: Displacement of [125I]-(Glp1,Nle11,[…])apelin-13 from recombinant rat EGFP-fused apelin receptor expressed in CHO cell membrane measured after 3 hrs; assay type: cell membranes
T4 sequence (Q9JHG3 whole entry): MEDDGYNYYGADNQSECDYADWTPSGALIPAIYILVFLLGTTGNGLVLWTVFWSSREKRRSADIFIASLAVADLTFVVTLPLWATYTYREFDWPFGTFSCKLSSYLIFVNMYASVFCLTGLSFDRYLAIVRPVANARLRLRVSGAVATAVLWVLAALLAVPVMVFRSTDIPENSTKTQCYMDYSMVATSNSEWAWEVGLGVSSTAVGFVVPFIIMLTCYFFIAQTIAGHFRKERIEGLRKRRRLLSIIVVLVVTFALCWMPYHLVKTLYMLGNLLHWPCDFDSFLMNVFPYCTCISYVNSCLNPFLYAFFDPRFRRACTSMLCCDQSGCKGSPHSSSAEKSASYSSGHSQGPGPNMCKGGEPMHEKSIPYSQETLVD

[13] = molecular target: T2, Plasma kallikrein; assay: as §1; assay type: ADME

Molecule | Activity [1] | Km [2] | Kcat [3] | Kcat/Km [4] | Time [5] | Time [6] | half-life [7] | half-life [8] | EC50 [9] | half-life [10] | Vmax [11] | IC50 [12] | t1/2 [13]
CCCC[C@H](NC(=O)[C@@H]1CCCN1C(=O)CNC(=O)[C@H](CCCCN)NC(=O)[C@H](Cc1cnc[nH]1)NC(=O)[C@H](CO)NC(=O)[C@H](CC(C)C)N(C)C(=O)[C@H](CCCNC(=N)N)NC(=O)[C@@H]1CCCN1C(=O)[C@H](CCCNC(=N)N)NC(=O)[C@H](CCC(N)=O)NC(=O)[C@@H](N)CCCNC(=N)N)C(=O)NC(C)(C)C(=O)N[C@@H](Cc1ccc(Br)cc1)C(=O)O (H-RQRPR[NMeL]SHKGP[Nle][Aib][Phe(4-Br)]-OH) | -15 mmHg |  |  |  |  |  |  |  |  |  |  |  | 
H-SLSSMTRVVGG-OH |  | 2.4 µM | 0.001 s⁻¹ | 0.4 ×10⁴ /Ms |  |  |  |  |  |  |  |  | 
CCCC[C@H](NC(=O)[C@@H]1CCCN1C(=O)CNC(=O)[C@H](CCCCN)NC(=O)[C@H](Cc1cnc[nH]1)NC(=O)[C@H](CO)NC(=O)[C@H](CC(C)C)NC(=O)[C@H](CCCNC(=N)N)NC(=O)[C@@H]1CCCN1C(=O)[C@H](CCCNC(=N)N)NC(=O)[C@H](CCC(N)=O)NC(=O)[C@@H](N)CCCNC(=N)N)C(=O)NC(C)(C)C(=O)N[C@@H](Cc1ccc(Br)cc1)C(=O)O (H-RQRPRLSHKGP[Nle][Aib][Phe(4-Br)]-OH) | 3 mmHg |  |  |  | > 36 h |  |  |  |  |  |  |  | 
CCCC[C@H](NC(=O)[C@@H]1CCCN1C(=O)CNC(=O)[C@H](CCCCN)NC(=O)[C@H](Cc1cnc[nH]1)NC(=O)[C@H](CO)NC(=O)[C@H](CC(C)C)NC(=O)[C@H](CCCNC(=N)N)NC(=O)[C@@H]1CCCN1C(=O)[C@H](CCCNC(=N)N)NC(=O)[C@H](CCC(N)=O)NC(=O)[C@H](CCCNC(=N)N)NC(=O)[C@H](CCCNC(=N)N)NC(=O)[C@H](Cc1ccccc1)NC(=O)[C@H](CCCCN)NC(=O)CCOCCOCCOCCOCCOCCOCCNC(=O)OCC1c2ccccc2-c2ccccc21)C(=O)NC(C)(C)C(=O)N[C@@H](Cc1ccc(Br)cc1)C(=O)O ({Fmoc-PEG6}-KFRRQRPRLSHKGP[Nle][Aib][Phe(4-Br)]-OH) | -48 mmHg |  |  |  | 12 h | 1 h | > 30 h | 18 h | 6.3 nM |  |  |  | 
CCCCCCCCCCCCCCCC(=O)N[C@@H](CCCCN)C(=O)N[C@@H](Cc1ccccc1)C(=O)N[C@@H](CCCNC(=N)N)C(=O)N[C@@H](CCCNC(=N)N)C(=O)N[C@@H](CCC(N)=O)C(=O)N[C@@H](CCCNC(=N)N)C(=O)N1CCC[C@H]1C(=O)N[C@@H](CCCNC(=N)N)C(=O)N(C)[C@@H](CC(C)C)C(=O)N[C@@H](CO)C(=O)N[C@@H](Cc1cnc[nH]1)C(=O)N[C@@H](CCCCN)C(=O)NCC(=O)N1CCC[C@H]1C(=O)N[C@@H](CCCC)C(=O)NC(C)(C)C(=O)N[C@@H](Cc1ccc(Br)cc1)C(=O)O (Palmitoyl-KFRRQRPR[NMeL]SHKGP[Nle][Aib][Phe(4-Br)]-OH) | -12 mmHg |  |  |  | > 36 h | 2 h | > 30 h | 20.5 h |  | 2.1 h |  |  | 
CCCCCCCCCCCCCCCC(=O)N[C@@H](CCCCN)C(=O)N[C@@H](Cc1ccccc1)C(=O)N[C@@H](CCCNC(=N)N)C(=O)N[C@@H](CCCNC(=N)N)C(=O)N[C@@H](CCC(N)=O)C(=O)N[C@@H](CCCNC(=N)N)C(=O)N1CCC[C@H]1C(=O)N[C@@H](CCCNC(=N)N)C(=O)N[C@@H](CC(C)C)C(=O)N[C@@H](CO)C(=O)N[C@@H](Cc1cnc[nH]1)C(=O)N[C@@H](CCCCN)C(=O)NCC(=O)N1CCC[C@H]1C(=O)N[C@@H](CCCC)C(=O)NC(C)(C)C(=O)N[C@@H](Cc1ccc(Br)cc1)C(=O)O (Palmitoyl-KFRRQRPRLSHKGP[Nle][Aib][Phe(4-Br)]-OH) | -41 mmHg |  |  |  | 1 h | 1 h | 1.5 h | 4.5 h |  | 1 h |  |  | 
CCCC[C@H](NC(=O)[C@@H]1CCCN1C(=O)CNC(=O)[C@H](CCCCN)NC(=O)[C@H](Cc1cnc[nH]1)NC(=O)[C@H](CO)NC(=O)[C@H](CC(C)C)N(C)C(=O)[C@H](CCCNC(=N)N)NC(=O)[C@@H]1CCCN1C(=O)[C@H](CCCNC(=N)N)NC(=O)[C@H](CCC(N)=O)NC(=O)[C@H](CCCNC(=N)N)NC(=O)[C@H](CCCNC(=N)N)NC(=O)[C@H](Cc1ccccc1)NC(=O)[C@H](CCCCN)NC(=O)CCOCCOCCOCCOCCOCCOCCNC(=O)OCC1c2ccccc2-c2ccccc21)C(=O)NC(C)(C)C(=O)N[C@@H](Cc1ccc(Br)cc1)C(=O)O ({Fmoc-PEG6}-KFRRQRPR[NMeL]SHKGP[Nle][Aib][Phe(4-Br)]-OH) | -53 mmHg |  |  |  | > 36 h | 2 h | > 30 h | 27 h | 2.5 nM |  |  |  | 
CSCC[C@H](NC(=O)[C@@H]1CCCN1C(=O)CNC(=O)[C@H](CCCCN)NC(=O)[C@H](Cc1cnc[nH]1)NC(=O)[C@H](CO)NC(=O)[C@H](CC(C)C)NC(=O)[C@H](CCCNC(=N)N)NC(=O)[C@@H]1CCCN1C(=O)[C@H](CCCNC(=N)N)NC(=O)[C@H](CCC(N)=O)NC(=O)[C@H](CCCNC(=N)N)NC(=O)[C@H](CCCNC(=N)N)NC(=O)[C@H](Cc1ccccc1)NC(=O)[C@@H](N)CCCCN)C(=O)N1CCC[C@H]1C(=O)N[C@@H](Cc1ccccc1)C(=O)O | -20 mmHg |  |  |  | < 0.5 h | < 0.5 h | 0.4 h | 0.02 h |  | 0.4 h | 2.947 µmol/min | 0.025 nM | 
CCCC[C@H](NC(=O)[C@@H]1CCCN1C(=O)CNC(=O)[C@H](CCCCN)NC(=O)[C@H](Cc1c[nH]cn1)NC(=O)[C@H](CO)NC(=O)[C@H](CC(C)C)N(C)C(=O)[C@H](CCCNC(=N)N)NC(=O)[C@@H]1CCCN1C(=O)[C@H](CCCNC(=N)N)NC(=O)[C@H](CCC(N)=O)NC(=O)[C@H](CCCNC(=N)N)NC(=O)[C@H](CCCNC(=N)N)NC(=O)[C@H](Cc1ccccc1)NC(=O)[C@@H](N)CCCCN)C(=O)NC(C)(C)C(=O)N[C@@H](Cc1ccc(Br)cc1)C(=O)O (H-KFRRQRPR[NMeL]SHKGP[Nle][Aib][Phe(4-Br)]-OH) | -36 mmHg |  |  |  |  |  | > 30 h | 1.2 h | 4.9 nM | 0.9 h |  |  | 
CCCC[C@H](NC(=O)[C@@H]1CCCN1C(=O)CNC(=O)[C@H](CCCCN)NC(=O)[C@H](Cc1c[nH]cn1)NC(=O)[C@H](CO)NC(=O)[C@H](CC(C)C)NC(=O)[C@H](CCCNC(=N)N)NC(=O)[C@@H]1CCCN1C(=O)[C@H](CCCNC(=N)N)NC(=O)[C@H](CCC(N)=O)NC(=O)[C@H](CCCNC(=N)N)NC(=O)[C@H](CCCNC(=N)N)NC(=O)[C@H](Cc1ccccc1)NC(=O)[C@@H](N)CCCCN)C(=O)NC(C)(C)C(=O)N[C@@H](Cc1ccc(Br)cc1)C(=O)O (H-KFRRQRPRLSHKGP[Nle][Aib][Phe(4-Br)]-OH) | -32 mmHg |  |  |  | < 1 h | < 0.5 h |  | 0.3 h | 4.1 nM | 0.7 h |  |  | 1 h
